The molecules below were run against T1, TLR4 (Mus musculus, UniProt Q9QUK6) (assay: Inhibitory effect with respect to NO production (LPS/interferon γ stimulated RAW264.7 cells)). Conditions: test compound 100 nM, LPS 1.25 ng/mL + mouse interferon γ 0.2 ng/mL, nitrite ion in culture supernatant.
T1 construct: endogenous in cells; host or cells: RAW264.7 (murine macrophage cell line)
T1 sequence (Q9QUK6 26-835): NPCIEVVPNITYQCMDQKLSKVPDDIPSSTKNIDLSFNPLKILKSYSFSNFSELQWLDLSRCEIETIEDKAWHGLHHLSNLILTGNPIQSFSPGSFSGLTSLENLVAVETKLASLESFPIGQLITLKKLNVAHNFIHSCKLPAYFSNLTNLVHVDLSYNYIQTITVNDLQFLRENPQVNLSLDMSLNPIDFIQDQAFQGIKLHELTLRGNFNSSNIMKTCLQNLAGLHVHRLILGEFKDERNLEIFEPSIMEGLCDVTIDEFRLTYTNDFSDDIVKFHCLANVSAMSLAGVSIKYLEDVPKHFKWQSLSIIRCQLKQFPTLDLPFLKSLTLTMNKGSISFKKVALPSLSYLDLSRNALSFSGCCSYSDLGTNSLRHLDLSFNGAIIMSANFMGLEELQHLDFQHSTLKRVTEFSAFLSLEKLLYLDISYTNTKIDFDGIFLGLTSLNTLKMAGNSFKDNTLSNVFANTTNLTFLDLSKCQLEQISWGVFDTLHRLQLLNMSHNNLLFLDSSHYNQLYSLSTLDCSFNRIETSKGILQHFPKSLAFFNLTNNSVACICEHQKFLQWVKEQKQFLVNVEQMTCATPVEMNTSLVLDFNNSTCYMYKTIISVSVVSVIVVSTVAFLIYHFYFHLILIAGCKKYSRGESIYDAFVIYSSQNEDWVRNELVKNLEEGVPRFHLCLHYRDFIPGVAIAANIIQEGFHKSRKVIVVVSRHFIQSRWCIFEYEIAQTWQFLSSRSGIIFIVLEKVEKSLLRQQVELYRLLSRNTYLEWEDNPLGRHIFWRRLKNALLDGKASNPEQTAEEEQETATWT
T1 sequence (Q9JHF9 19-160 partner): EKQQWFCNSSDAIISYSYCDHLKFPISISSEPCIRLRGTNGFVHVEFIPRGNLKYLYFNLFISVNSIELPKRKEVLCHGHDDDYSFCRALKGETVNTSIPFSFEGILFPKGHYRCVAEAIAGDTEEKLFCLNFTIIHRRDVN
Type: cell-based, murine
Description: Inhibitory Effect With Respect to NO Production
The inhibitory effect on TLR4 was determined using the inhibition rate due to the test compound with respect to NO production as a result of addition of lipopolysaccharide (LPS) using murine macrophage cell line RAW264.7. The cells were adjusted to 2×10^6 cells/mL using RPM1-1640 culture medium (phenol red free) supplemented with 10% inactivated bovine fetal serum, and were plated on 384 well plate so as to contain 6×10^4 cells/30 μL per well. Thereafter the cells were cultured at 37° C. overnight under 5% CO2/95% air. The test compound dissolved in DMSO was diluted 200 times using RPM1-1640 culture medium and adjusted so as to form a compound concentration of 500 nM. The prepared test compound 10 μL (final concentration 100 nM) was added to the cells, and LPS (Sigma) and mouse interferon γ (Wako Pure Chemicals) were added in amounts of 10 μL so as to form final concentrations of 1.25 ng/mL and 0.2 ng/mL respectively. The cells were further cultured overnight, and then the nitrite ion (stable NO metabolite) concentration in the culture supernatant was measured as an index of NO production. The nitrite ion concentration was assayed by adding 10 μL of 20 μg/mL 2,3-diamino naphthalene (DAN) dissolved in 0.2N HCl to 20 μL culture supernatant, incubating at room temperature for ten minutes, and then adding 10 μL of 0.5N NaOH, and measuring the fluorescent value at 460 nm (excitation wavelength 355 nm) using an EnVision plate reader (Perkin Elmer). The NO production inhibition rate (%) was calculated using the value without the addition of stimulating agent as control of 100% inhibition, and the value without the addition of the compound as control of 0% inhibition.

| SMILES | NO production inhibitory effect at 100 nM (% inhibition) |
| --- | --- |
| CCOC(=O)C1=CC2(CCC1S(=O)(=O)Cc1cccc(C)c1)O[C@H](CO)[C@@H](CO)O2 (stereo partly drawn) [Compound 12, ethyl (2R,3R)-2,3-bis(hydroxymethyl)-8-((3-methylbenzyl)sulfonyl)-1,4-dioxaspiro[4.5]dec-6-ene-7-carboxylate] | 100 % inhibition |
| CCOC(=O)C1=CC2(CCC1S(=O)(=O)Cc1ccc(F)cc1Cl)OCCO2 (centres unmarked) [Compound 22, ethyl 8-((2-chloro-4-fluorobenzyl)sulfonyl)-1,4-dioxaspiro[4.5]dec-6-ene-7-carboxylate] | 110 % inhibition |
| CCOC(=O)C1=CC2(CCC1S(=O)(=O)Cc1ccc(F)c(Cl)c1)O[C@H](CO)[C@@H](CO)O2 (stereo partly drawn) [Compound 5, ethyl (2R,3R)-8-((3-chloro-4-fluorobenzyl)sulfonyl)-2,3-bis(hydroxymethyl)-1,4-dioxaspiro[4.5]dec-6-ene-7-carboxylate] | 100 % inhibition |
| CCOC(=O)C1=CC2(CCC1S(=O)(=O)Cc1ccc(F)cc1Cl)OC[C@H](CNC(=O)OCc1ccccc1)O2 (stereo partly drawn) [Compound 29, ethyl (2S)-2-((((benzyloxy)carbonyl)amino)methyl)-8-((2-chloro-4-fluorobenzyl)sulfonyl)-1,4-dioxaspiro[4.5]dec-6-ene-7-carboxylate] | 86 % inhibition |
| CCOC(=O)C1=CC2(CCC1S(=O)(=O)Cc1cc(Cl)ccc1F)O[C@H](CO)[C@@H](CO)O2 (stereo partly drawn) [Compound 4, ethyl (2R,3R)-8-((5-chloro-2-fluorobenzyl)sulfonyl)-2,3-bis(hydroxymethyl)-1,4-dioxaspiro[4.5]dec-6-ene-7-carboxylate] | 100 % inhibition |
| CCOC(=O)C1=CC2(CCC1S(=O)(=O)Cc1ccc(F)cc1Cl)O[C@H](COC(C)=O)[C@@H](COC(C)=O)O2 (stereo partly drawn) [Compound 10, ethyl (2R,3R)-2,3-bis(acetoxymethyl)-8-((2-chloro-4-fluorobenzyl)sulfonyl)-1,4-dioxaspiro[4.5]dec-6-ene-7-carboxylate] | 110 % inhibition |
| C#CCCCCOC[C@@H]1COC2(C=C(C(=O)OCC)C(S(=O)(=O)Cc3ccc(F)cc3Cl)CC2)O1 (stereo partly drawn) [Compound 28, ethyl (2R)-8-((2-chloro-4-fluorobenzyl)sulfonyl)-2-((hex-5-yn-1-yloxy)methyl)-1,4-dioxaspiro[4.5]dec-6-ene-7-carboxylate] | 94 % inhibition |
| CCOC(=O)C1=CC2(CCC1S(=O)(=O)Cc1ccc(F)cc1Cl)O[C@H](COC)[C@@H](COC)O2 (stereo partly drawn) [Compound 11, ethyl (2R,3R)-8-((2-chloro-4-fluorobenzyl)sulfonyl)-2,3-bis(methoxymethyl)-1,4-dioxaspiro[4.5]dec-6-ene-7-carboxylate] | 110 % inhibition |
| CCOC(=O)C1=CC2(CC[C@H]1S(=O)(=O)Cc1cccc(Cl)c1)O[C@H](CO)[C@@H](CO)O2 [Compound 30, ethyl (2R,3R,8R)-8-((3-chlorobenzyl)sulfonyl)-2,3-bis(hydroxymethyl)-1,4-dioxaspiro[4.5]dec-6-ene-7-carboxylate] | 106 % inhibition |

Same assay, conditions: test compound 100 nM, LPS 1.25 ng/mL + mouse interferon γ 0.2 ng/mL, nitrite ion in culture supernatant, 0.1 µM

| SMILES | NO production inhibitory effect at 100 nM (% inhibition) |
| --- | --- |
| CCOC(=O)C1=CC2(CCC1S(=O)(=O)Cc1ccc(F)cc1Cl)O[C@H](CO)[C@@H](CO)O2 (single isomer, unassigned) [Compound 15] | 75 % inhibition |
| CCOC(=O)C1=CC2(CCC1S(=O)(=O)Cc1ccc(F)cc1Cl)OC[C@@H](CO)O2 (stereo partly drawn) [Compound 8, ethyl (2R)-8-((2-chloro-4-fluorobenzyl)sulfonyl)-2-(hydroxymethyl)-1,4-dioxaspiro[4.5]dec-6-ene-7-carboxylate] | 100 % inhibition |

Source: patent US20180118708A1, “CYCLIC COMPOUND” (Takeda Pharmaceutical Company Limited, priority 2015, published 2018)
